Test results reported in patent US20260306632A1, “NANOPARTICLES FOR PHOTOIMMUNE THERAPY COMPRISING PHOTOSENSITIZER AND ADJUVANT, AND USAGE THEREOF” (KOREA INSTITUTE OF SCIENCE AND TECHNOLOGY, priority 2022, published 2026).
Where two headings read alike, the source gives them in different places.

Experiment: Solubility of free imiquimod and imiquimod-oleic acid complex (ImO) in water
Format: physicochemical
Conditions: for solubility: highest/lowest concentration examined
Method: Nanoparticles (ImiMB) were synthesized using a methylene blue-oleic acid complex (MBO) and Pluronic F-127 with imiquimod in a free imiquimod state without modifying imiquimod with oleic acid. […] Subsequently, 1 ml of distilled water (DW) was used instead of ImO complex solution in the rehydration step of the thin film (FIG. 2).
Therefore, in the present invention, imiquimod was modified with an organic acid to form a cationic adjuvant-organic acid complex for solubility improvement and high-content loading, and then nanoparticles were prepared using the cationic adjuvant-organic acid complex.

Compound	solubility in water (in words)	solubility (read-out: solubility) [µg/mL]	solubility [µg/mL]
CC(C)Cn1cnc2c(N)nc3ccccc3c21 [free imiquimod, imiquimod]	not soluble in water	< 100	
imiquimod-oleic acid complex	particle formation occurred well even at a high concentration of 5.0 mg/ml, maintaining a transparent solution form		≥ 5000
